Columns and labels:
[1] = system: carrageenan-induced paw edema and hyperalgesia; assay: Carrageenan paw test for edema and hyperalgesia; type: in vivo, Swiss Webster mice
Excerpt: Injection of carrageenan subcutaneously into the hind foot (paw) of a rat or mouse induces robust inflammation and pain. The inflammatory response begins 1-2 hrs post-carrageenan injection and persists for at least five hours following inoculation. In addition, the animal's inflamed hind paw is sensitive to noxious (hyperaglesia) or innocuous (allodynia) stimuli, compared to the contralateral hind paw. Compounds can be evaluated in this model for anti-hyperalgesia and anti-inflammatory activity. […] It is possible that some compounds will affect the inflamed paw and not affect the responses of the contralateral paw.
Embodiments of the carrageenan foot edema test are performed with materials, reagents and procedures essentially as described by Winter, et al., (Proc. Soc. Exp. Biol. Med., 111, 544 (1962)). Prophylactic and therapeutic embodiments have been developed, and are known in the art. The animals are evaluated for their responsiveness to noxious (paw pinch, plantar test) or innocuous (cold plate, von Frey filaments) stimuli. In the following protocol, mice were used.
Animals, compounds, and dosing. Healthy young male Swiss Webster mice in which weight variation of the mice will not exceed ±20% of the mean were used for the study. […]
Paw Edema. Immediately before sub-plantar administration of carrageenan and after 2, 3, 5 and 24 hours post carrageenan, mouse paw volume was measured using the plethysmometer (Ugo Basile). The assessment of edema was expressed as the mean increase in paw volume relative to control.
Assessment of Paw Withdrawal Latency. Prior to sub-plantar administration of carrageenan and after 0.5, 2, 3, 5, and 24 hours post-carrageenan, the latency of withdrawal response was determined by placing mice on a hot plate analgesia meter with surface temperature maintained at 51° C. […] Paw withdrawal latency is calculated as Δt=right paw withdrawal−left paw withdrawal. […]

in vivo = assay: in vivo; parameters: species or system beagle dogs; settings: male, beagle, dog
Protocol: (§1) Two groups of three male beagle dogs weighing 9.0-10.7 kg and aged 8-30 months were fasted overnight before being administered the test article, MGBG, as either a single bolus intravenous dose of 1 mg/kg (Group 1) or as a single oral gavage dose of 10 mg/kg (Group 2). Dose formulation analysis verified administered dose solutions as within 17% of targeted concentrations of 1 and 10 mg/kg for Groups 1 and 2, respectively.
Blood samples (approximately 2.0 mL) were collected for plasma MGBG concentration measurement from all intravenously dosed animals prior to dosing and at approximately T=0.083 (5 min), 0.25 (15 min), 0.5 (30 min), 1, 2, 4, 8, and 24 hours after dosing. A similar procedure was used with orally dosed animals was used, except that collection took place at T=1, 2, 4, 8, 12, 24, and 36 hours after dosing. The samples were centrifuged under refrigerated conditions following completion of sample collection at each interval. The resulting plasma was separated and stored frozen at approximately −70° C. until analysis.

[2] = Rhesus macaque single-dose pharmacokinetics; type: in vivo, rhesus monkeys
Protocol: as §1, with “rhesus monkeys” for “beagle dogs weighing 9.0-10.7 kg and aged 8-30 months”, “14%” for “17%”
Blood samples were collected into tubes containing lithium heparin from the femoral vein/artery (approximately 1.0 mL) for plasma MGBG concentration measurement from all intravenously dosed animals prior to dosing and at approximately T=0.083 (5 min), 0.25 (15 min), 0.5 (30 min), 1, 2, 4, 8, and 24 hours after dosing. Blood samples for plasma MGBG concentration measurement were collected from all orally dosed animals prior to dosing at approximately T=1, 2, 4, 8, 12, 24, and 36 hours after dosing. Food was also withheld through the first four hours of blood sample collection.
The samples were centrifuged under refrigerated conditions following completion of sample collection at each interval. The resulting plasma was separated and stored frozen at approximately −70° C. until analysis.
PK analysis was performed on the individual plasma concentration-time profiles for MGBG using the WinNonlin non-compartmental approach (linear trapezoidal rule for AUC calculations). Nominal dose values and sampling times were used for calculations. All MGBG plasma concentration measurements reported as BQL (<2.51 ng/mL) were set equal to zero for the purpose of analysis. Following IV and PO administration of MGBG, plasma PK disposition parameters were calculated using the WinNonlin default selection criteria for the selection of the Lambda Z.
Consequently, a model-dependent two-compartmental analysis was used to calculate bioavailability.

[3] = male, rhesus monkey, plasma, single bolus IV 1 mg/kg, mean
[4] = male, rhesus monkey, plasma, single oral gavage 10 mg/kg, mean
[5] = male, rhesus monkey, single bolus IV 1 mg/kg, plasma, mean
[6] = male, rhesus monkey, single oral gavage 10 mg/kg, plasma, mean

## CC(/C=N/NC(=N)N)=N\NC(=N)N [MGBG, 1,1′[methylethanediylidene]dinitrilodiguanidine]
[1]; mice, MGBG PO BID
  reduction of edema: efficacious
[1]; mice, MGBG PO BID, hot plate paw withdrawal latency
  reduction of hyperalgesia: efficacious
[1]; murine carrageenan models, 3 mg/kg PO BID and 10 mg/kg PO BID
  efficacy at lower doses: efficacy
In vivo; iv, 1 mg/kg
  AUC: 1410 ng·h/mL
  Clobs: 13.7 mL/min/kg
  Cmax: 1180 ng/mL
  Tmax: 0.083 h
  VSSobs: 14.6 L/kg
  half-life: 15.8 h
In vivo; po, 10 mg/kg
  AUC: 6290 ng·h/mL
  Clobs: 8.29 mL/min/kg
  Cmax: 616 ng/mL
  Tmax: 1 h
  bioavailability: 49%
  half-life: 15.5 h
[2]; following IV and PO administration
  systemic plasma MGBG exposure: observed at all collected plasma time points
[2]; male, rhesus monkey, plasma, oral 10 mg/kg vs IV 1 mg/kg, two-compartmental analysis used
  bioavailability: 35%
[2]; [3]
  Tmax: 0.139 h
  half-life: 30.8 h
[2]; [4]
  Tmax: 3.33 h
  half-life: 24.2 h
[2]; [5]
  AUC: 1660 ng·h/mL
  Cmax: 757 ng/mL
[2]; [6]
  AUC: 4240 ng·h/mL
  Cmax: 192 ng/mL
[2]; single bolus IV 1 mg/kg, mean
  Clobs: 13.7 mL/min/kg
  VSSobs: 13.2 L/kg
[2]; single oral gavage 10 mg/kg, mean
  Clobs: 6.63 mL/min/kg
